{"source": "patent US10196668B2", "about": "“Reagents and methods for screening MPS I, II, IIIA, IIIB, IVA, VI, and VII” (University of Washington through its Center for …, priority 2013, dated 2019)", "molecules": {"B1": {"name": "iduronidase: human alpha-L-iduronidase (a glycohydrolase) obtained by overexpression in mammalian cells, second enzyme (protein, UniProt P35475 28-653, looked up)", "Alpha-L-iduronidase": "APHLVHVDAARALWPLRRFWRSTGFCPPLPHSQADQYVLSWDQQLNLAYVGAVPHRGIKQVRTHWLLELVTTRGSTGRGLSYNFTHLDGYLDLLRENQLLPGFELMGSASGHFTDFEDKQQVFEWKDLVSSLARRYIGRYGLAHVSKWNFETWNEPDHHDFDNVSMTMQGFLNYYDACSEGLRAASPALRLGGPGDSFHTPPRSPLSWGLLRHCHDGTNFFTGEAGVRLDYISLHRKGARSSISILEQEKVVAQQIRQLFPKFADTPIYNDEADPLVGWSLPQPWRADVTYAAMVVKVIAQHQNLLLANTTSAFPYALLSNDNAFLSYHPHPFAQRTLTARFQVNNTRPPHVQLLRKPVLTAMGLLALLDEEQLWAEVSQAGTVLDSNHTVGVLASAHRPQGPADAWRAAVLIYASDDTRAHPNRSVAVTLRLRGVPPGPGLVYVTRYLDNGLCSPDGEWRRLGRPVFPTAEQFRRMRAAEDPVAAAPRPLPAGGRLTLRPALRLPSLLLVHVCARPEKPPGQVTRLRALPLTQGQLVLVWSDEHVGSKCLWTYEIQFSQDGKAYTPVSRKPSTFNLFVFSPDTGAVSGSYRVRALDYWARPGPFSDPVPYLEVPVPRGPPSPGNP"}}, "assay_type_in_all_cases": "biochemical", "key": {"arylsulfatase B (ASB)": {"biological_target": "T1, arylsulfatase B (ASB) (Homo sapiens, UniProt P15848)", "T1 construct": "from tissue; host or cells: dried blood spot (3 mm punch)", "T1 sequence (P15848 37-533)": "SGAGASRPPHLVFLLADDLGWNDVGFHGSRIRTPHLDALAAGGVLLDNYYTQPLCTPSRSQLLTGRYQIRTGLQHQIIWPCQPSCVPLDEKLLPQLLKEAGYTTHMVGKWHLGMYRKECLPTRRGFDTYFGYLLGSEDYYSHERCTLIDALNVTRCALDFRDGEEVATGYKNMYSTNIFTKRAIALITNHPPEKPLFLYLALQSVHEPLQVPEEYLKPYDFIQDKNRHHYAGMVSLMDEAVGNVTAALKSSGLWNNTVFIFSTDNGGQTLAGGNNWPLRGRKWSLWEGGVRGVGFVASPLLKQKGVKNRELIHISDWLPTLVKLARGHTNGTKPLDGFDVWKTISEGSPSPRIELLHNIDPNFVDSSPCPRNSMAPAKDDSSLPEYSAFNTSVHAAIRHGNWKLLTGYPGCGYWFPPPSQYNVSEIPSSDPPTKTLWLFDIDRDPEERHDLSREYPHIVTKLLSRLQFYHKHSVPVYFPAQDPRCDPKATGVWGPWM", "test": "ASB (MPS-VI) assay with beta-NGA and Z-PUG-NAc, UHPLC-MS/MS", "description": "Having established the action of human hexosaminidase A on the ASB substrate, the ASB assay was developed, using the same approach developed for GALNS, namely adding beta-NGA and Z-PUG-NAc. The experiments were carried out as for the GALNS assays (see Example 10) but with 1 mM ASB substrate replacing the GALNS substrate.\n(§1) Experiment 1. A 3 mm punch of a dried blood spot from a random newborn is incubated with 0.03 mL of assay cocktail consisting of 1 mM GALNS substrate in 50 mM ammonium formate pH 4.0 containing 7.5 mM barium acetate, 5.0 mM cerium acetate, 1 mM Z-PUG-NAc, and 0.01 mg of bacterial beta-N-acetylgalactosaminidase. The mixture also contains 0.005 mM internal standard. After 16 hrs at 37° C. with shaking, the mixture is quenched with 0.12 mL of acetonitrile and the sample plate is centrifuged to pellet the precipitate. Supernatant (0.12 mL) is transferred to a new plate, and 0.12 mL of water is added. The plate is placed on the autosampler of the UHPLC-MS/MS instrument (Waters Xevo TQ MS/MS with a Waters Acquity UHPLC system). A portion of the sample (0.01 mL) is injected, and the GALNS product (substrate minus sulfate), the internal standard, and the aglycones derived from the GALNS product and internal standard are quantified by multiple reaction monitoring (MS/MS). Note the internal standard added, like the GALNS product, is converted to its aglycone by the addition of bacterial beta-N-acetylgalactosaminidase."}, "[1]": {"biological_target": "T2, Recombinant human hexosaminidase A (Homo sapiens, UniProt P06865)", "T2 sequence (P06865 89-529)": "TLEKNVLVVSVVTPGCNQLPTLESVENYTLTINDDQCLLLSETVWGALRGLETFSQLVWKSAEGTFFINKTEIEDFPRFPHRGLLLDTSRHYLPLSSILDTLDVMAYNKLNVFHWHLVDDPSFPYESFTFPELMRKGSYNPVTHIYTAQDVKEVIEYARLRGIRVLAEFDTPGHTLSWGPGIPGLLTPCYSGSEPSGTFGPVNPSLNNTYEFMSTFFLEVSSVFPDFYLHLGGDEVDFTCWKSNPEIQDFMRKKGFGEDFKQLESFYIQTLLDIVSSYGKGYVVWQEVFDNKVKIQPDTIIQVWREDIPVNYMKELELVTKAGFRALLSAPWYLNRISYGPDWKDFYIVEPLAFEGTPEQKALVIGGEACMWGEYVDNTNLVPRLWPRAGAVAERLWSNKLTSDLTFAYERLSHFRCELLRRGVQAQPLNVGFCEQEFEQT", "T2 sequence (P07686 122-556 partner)": "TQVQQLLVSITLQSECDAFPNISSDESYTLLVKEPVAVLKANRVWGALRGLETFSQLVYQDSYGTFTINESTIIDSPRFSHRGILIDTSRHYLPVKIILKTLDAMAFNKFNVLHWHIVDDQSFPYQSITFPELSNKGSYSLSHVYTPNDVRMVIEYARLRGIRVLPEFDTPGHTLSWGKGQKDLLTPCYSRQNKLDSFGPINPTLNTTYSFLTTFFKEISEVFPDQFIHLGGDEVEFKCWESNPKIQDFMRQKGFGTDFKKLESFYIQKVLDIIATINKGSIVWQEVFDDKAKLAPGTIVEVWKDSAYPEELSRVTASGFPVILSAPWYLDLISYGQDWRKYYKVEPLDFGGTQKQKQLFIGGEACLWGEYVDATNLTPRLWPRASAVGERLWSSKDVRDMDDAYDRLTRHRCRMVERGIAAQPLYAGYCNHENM", "test": "Action of hexosaminidase A on ASB substrate, UHPLC-MS/MS", "settings": "1 mM ASB substrate, 100 mM ammonium formate pH 5.6, 5 hrs at 37° C.", "description": "The mixture includes 1 mM ASB substrate in 100 mM ammonium formate buffer, pH 5.6 containing the indicated amount of hexosaminidase. After incubation for 5 hrs at 37° C., the mixture is analyzed by UHPLC-MS/MS. The aglycone signal is not due to contamination of the substrate with aglycone because no aglycone is seen when hexosaminidase A is omitted. The aglycone is not the result of cleavage of the ASB in the electrospray ionization source of the mass spectrometer because the amount of aglycone increases with increasing hexosaminidase A (FIG. 1), and the UHPLC retention time of the aglycone matches that of an authentic aglycone, and this is different than the retention time of the ASB substrate. Thus, hexosaminidase A acts on the ASB substrate to produce algycone. Because hexosaminidase A acts on ASB substrate to produce algycone, this enzyme cannot be used in a coupled assay of ASB, and furthermore it is important to inhibit hexosaminidase A so as not to generate aglycone directly from the ASB substrate."}, "human hexosaminidase A": {"biological_target": "T3, human hexosaminidase A (Homo sapiens, UniProt P06865+P07686)", "T3 construct": "from tissue; host or cells: dried blood spot from a random newborn", "T3 sequence (P06865 89-529)": "T2 sequence (P06865 89-529)", "T3 sequence (P07686 122-556)": "T2 sequence (P07686 122-556 partner)", "test": "Block of endogenous hexosaminidase A in dried blood spots in the GALNS assay", "settings": "1 mM Z-PUG-NAc in assay cocktail with dried blood spot", "description": "as §1"}, "[2]": {"biological_target": "T4, iduronic acid 2-sulfatase (Homo sapiens, UniProt P22304)", "T4 construct": "from tissue; host or cells: dried blood spot (3 mm punch)", "T4 sequence (P22304 34-550)": "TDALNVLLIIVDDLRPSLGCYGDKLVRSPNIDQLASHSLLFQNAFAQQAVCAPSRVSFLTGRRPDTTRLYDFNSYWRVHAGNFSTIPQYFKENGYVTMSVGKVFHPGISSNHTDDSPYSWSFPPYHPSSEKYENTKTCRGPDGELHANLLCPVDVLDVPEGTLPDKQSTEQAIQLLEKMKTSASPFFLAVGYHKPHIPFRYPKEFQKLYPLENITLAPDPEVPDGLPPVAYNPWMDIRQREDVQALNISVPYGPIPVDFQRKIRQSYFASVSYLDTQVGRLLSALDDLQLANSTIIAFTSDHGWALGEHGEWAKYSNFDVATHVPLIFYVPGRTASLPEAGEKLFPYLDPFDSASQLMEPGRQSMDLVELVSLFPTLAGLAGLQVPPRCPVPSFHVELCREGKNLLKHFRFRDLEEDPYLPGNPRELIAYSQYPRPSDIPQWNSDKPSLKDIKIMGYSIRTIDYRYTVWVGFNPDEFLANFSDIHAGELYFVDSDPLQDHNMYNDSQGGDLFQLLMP", "test": "Sulfatase assay for MPS-II with second enzyme alpha-L-iduronidase", "settings": "with iduronidase versus without", "description": "In the assay, a second enzyme, alpha-L-iduronidase (a glycohydrolase) is added to the assay cocktail, which converts Initial MPS-II Product to Final MPS-II Product by removing the iduronic acid residue leaving the aglycone. The iduronidase can be present in the assay cocktail that is incubated with the dried blood spot, or it can be added after the first incubation with the dried blood spot followed by a second incubation period. The amount of iduronidase added is sufficient to convert all Initial MPS-II Product to Final MPS-II Product. The assay cocktail also contains Initial MPS-II Internal Standard (same as Initial MPS-II Product but, for example, with 5 deuteriums in the benzoyl group), which is converted by iduronidase to Final MPS-II Internal Standard. Both Final MPS-II Product and Final MPS-II Internal Standard are detected by tandem mass spectrometry, which enables the amount of Final MPS-II Product to be quantified. […] The analytes are detected by multiple reaction monitoring.\nThus the assay sensitivity has been improved by about 100-fold. […] With the assay of the invention, this desulfation is of no concern because the product being detected is the aglycone (Final MPS-II Product)."}, "[3]": {"settings": "Expt. 1: 3 mm dried blood spot punch, 1 mM Z-PUG-NAc, 0.01 mg beta-NGA"}, "[4]": {"settings": "Expt. 2: 3 mm filter paper punch (no blood), 1 mM Z-PUG-NAc, 0.01 mg of bacterial enzyme"}, "[5]": {"settings": "Expt. 3: 3 mm dried blood spot punch, 1 mM Z-PUG-NAc, no beta-NGA"}, "[6]": {"settings": "Expt. 4: 3 mm filter paper punch (no blood), nothing added"}}, "note": "Values joined by “and” are separate entries in the source; they are usually repeats but may differ in a detail not shown here. Identical values can stand only once.", "data": [{"molecule": "CCCCC(=O)N(CCCCCNC(=O)c1ccccc1)CCC(=O)Nc1ccc(OC2OC(CO)C(OS(=O)(=O)O)C(O)C2NC(C)=O)cc1", "note": "(centres unmarked) [ASB substrate]", "values": [{"measurement": "ASB product (substrate without sulfate) peak area", "setting": "arylsulfatase B (ASB); [3]", "result": "154,000"}, {"measurement": "aglycone peak area (product without sugar)", "setting": "arylsulfatase B (ASB); [3]", "result": "1,570,000"}, {"measurement": "ASB product (substrate without sulfate) peak area", "setting": "arylsulfatase B (ASB); [4]", "result": 404}, {"measurement": "aglycone peak area (product without sugar)", "setting": "arylsulfatase B (ASB); [4]", "result": "58,300"}, {"measurement": "ASB product (substrate without sulfate) peak area", "setting": "arylsulfatase B (ASB); [5]", "result": "371,000"}, {"measurement": "aglycone peak area (product without sugar)", "setting": "arylsulfatase B (ASB); [5]", "result": "39,900"}, {"measurement": "ASB product (substrate without sulfate) peak area", "setting": "arylsulfatase B (ASB); [6]", "result": "3,340 and 3,430"}, {"measurement": "aglycone peak area (product without sugar)", "setting": "arylsulfatase B (ASB); [6]", "result": "33,800"}, {"measurement": "aglycone release from substrate by hexosaminidase A", "setting": "[1]", "result": "acts on the ASB substrate to liberate aglycone"}]}, {"molecule": "CC(=O)N[C@H]1/C(=N/OC(=O)Nc2ccccc2)O[C@H](CO)[C@@H](O)[C@@H]1O", "note": "[Z-PUG-NAc, (Z)—O-(2-acetamido-2-deoxy-D-glucopyranosylidene)-amino N-phenylcarbamate]", "values": [{"measurement": "inhibition of hexosaminidase A", "setting": "human hexosaminidase A", "result": "fully block hexosaminidase A"}]}, {"molecule": "B1", "values": [{"measurement": "improvement of assay sensitivity by second enzyme", "setting": "[2]", "result": "about 100 fold"}]}]}
